Patent US20210393520A1, “TREATMENT OF GRAM-NEGATIVE FOLLICULITIS OR AN INFLAMMATION THEREOF WITH BESIFLOXACIN” (VYOME THERAPEUTICS LIMITED, priority 2018, published 2021)
Values after ≈ are worked out from the molar mass of the structure shown. “Also recorded” adds a separate entry of the source.

Key:
Acinetobacter sp. 488 = test: MIC, micro broth dilution in Muller Hinton broth (CLSI), Table 1B; format: cell-based; conditions: read-out: Minimum Inhibitory Concentration
Protocol: (§1) Besifloxacin HCL was tested against ampicillin and cefotaxime (3rd generation cephalosporin) susceptible and resistant gram-negative bacterial strains involved in GNF (gram negative folliculitis) by broth dilution method as per the Clinical & Laboratory Standards Institutes (CLSI) guidelines. MIC assay was performed in 96 well plates by micro broth dilution method, in 96 well plates, all the wells were added with 100 μl of sterilized Muller Hinton broth No: 2 cation broth (HiMedia, India). The initial stock of test compounds (1 mg/ml) were prepared in dimethyl sulfoxide (DMSO) and further dilutions were made in culture broth to get the desirable concentration. Then 100 μl of broth containing test compounds were initially added to the first column's wells and then serial dilution was performed up to well of 10th column. Wells of 11th and 12th column served as a positive and negative control respectively. Finally, 100 μl of inoculum (0.5 McFarland equal bacterial suspension was 100 times diluted in culture broth) was added to all the wells. Plates were incubated at 37° C. for 18-24 hrs. After incubation, MIC of each test compound was determined by observing the lowest concentration of test compound that has no visual growth compared to growth control. Minimum inhibitory concentration of besifloxacin, ampicillin and cefotaxime against gram negative bacterial strains were shown in Table 1.

Enterobacter sp. 1 = test: as above; format: cell-based; conditions: read-out: Minimum Inhibitory Concentration
Protocol: as §1

Enterobacter sp. 2 = test: as above; format: cell-based; conditions: read-out: Minimum Inhibitory Concentration
Protocol: as §1

Enterobacter sp. 523 = test: as above; format: cell-based; conditions: read-out: Minimum Inhibitory Concentration
Protocol: as §1

Enterobacter sp. 532 = test: as above; format: cell-based; conditions: read-out: Minimum Inhibitory Concentration
Protocol: as §1

Escherichia coli 591 = test: as above; format: cell-based; conditions: read-out: Minimum Inhibitory Concentration
Protocol: as §1

Escherichia coli 592 = test: as above; format: cell-based; conditions: read-out: Minimum Inhibitory Concentration
Protocol: as §1

Klebsiella sp. 498 = test: as above; format: cell-based; conditions: read-out: Minimum Inhibitory Concentration
Protocol: as §1

Klebsiella sp. 512 = test: as above; format: cell-based; conditions: read-out: Minimum Inhibitory Concentration
Protocol: as §1

Pseudomonas sp. 537 = test: as above; format: cell-based; conditions: read-out: Minimum Inhibitory Concentration
Protocol: as §1

Pseudomonas sp. 556 = test: as above; format: cell-based; conditions: read-out: Minimum Inhibitory Concentration
Protocol: as §1

[1] = test system: A. baumannii CCARM 12001 (Quinolone resistant strain); test: MIC, micro broth dilution (CLSI), Table 1A; format: cell-based; conditions: Acinetobacter baumannii, CCARM12001
Protocol: (§2) MIC of besifloxacin and other antibiotics molecules were determined by micro broth dilution method as per the Clinical and Laboratory Standards Institute (CLSI) guideline. MIC assay is the determinant of the inherent anti-microbial potency of a particular molecule. For preparing inoculum, bacterial strains were cultured in Brain Heart Infusion Agar (BHIA) at 37° C. for 24 hours. […] For bacterial inoculum, bacterial culture turbidity was adjusted to 0.1 OD at 600 nm in UV-Visual spectrophotometer (approximately 1.5×10^8 cells/ml) and further diluted (100 times with sterile BHI broth). Diluted bacterial suspension (100 μl) was added to each well except sterility control wells (column 12 of 96 well plate). Column 11 of 96 well plate was used as growth control and vehicle control. The plates were incubated at 37° C. for 24 h. The MIC of the test compounds were determined by observing the lowest concentration of test compound that prevented the visual bacterial growth.

[2] = test system: A. baumannii CCARM 12020 (multi-drug resistant, quinolone susceptible); test: MIC, micro broth dilution (CLSI), Table 1A; format: cell-based; conditions: Acinetobacter baumannii, CCARM12020
Protocol: as §2

[3] = test system: A. haumannii ATCC 19606 (wild type); test: MIC, micro broth dilution (CLSI), Table 1A; format: cell-based; conditions: Acinetobacter baumannii, ATCC19606
Protocol: as §2

[4] = test system: E. coli ATCC BAA 196 (multi-drug resistant strain); test: MIC, micro broth dilution (CLSI), Table 1A; format: cell-based; conditions: Escherichia coli, BAA196
Protocol: as §2

[5] = test system: E. coli MTCC 1687 (wild type); test: MIC, micro broth dilution (CLSI), Table 1A; format: cell-based; conditions: Escherichia coli, MTCC1687
Protocol: as §2

[6] = test system: K. pneumoniae ATCC 13883 (wild type); test: MIC, micro broth dilution (CLSI), Table 1A; format: cell-based; conditions: Klebsiella pneumoniae, ATCC13883
Protocol: as §2

[7] = test system: P. aeruginosa ATCC 27853 (wild type); test: MIC, micro broth dilution (CLSI), Table 1A; format: cell-based; conditions: Pseudomonas aeruginosa, ATCC27853
Protocol: as §2

[8] = test system: P. aeruginosa CCARM 2204 (multi-drug resistant, quinolone susceptible); test: MIC, micro broth dilution (CLSI), Table 1A; format: cell-based; conditions: Pseudomonas aeruginosa, CCARM2204
Protocol: as §2

[9] = test system: E. aerogenes M2-1 (clinical isolate); test: MIC, micro broth dilution (CLSI), Table 1A; format: cell-based, Enterobacter aerogenes; conditions: Klebsiella aerogenes
Protocol: as §2

[10] = test system: E. aerogenes NCIM 5139 (wild type); test: MIC, micro broth dilution (CLSI), Table 1A; format: cell-based, Enterobacter aerogenes; conditions: Klebsiella aerogenes, NCIM5139
Protocol: as §2

P. acnes V3-1 = test: MIC against bacteria isolated from acne lesions, Table 2; format: cell-based, Propionibacterium acnes; conditions: Cutibacterium acnes, V31; P. acnes V3-1, isolated from acne lesions; read-out: Minimum Inhibitory Concentration
Protocol: as §2
(§3) Different skin resident bacteria were isolated from acne lesions of moderate to severe acne patients.

[11] = test system: Bacillus megaterium M1-2.; test: as above; format: cell-based; conditions: Priestia megaterium, M12., read-out: Minimum Inhibitory Concentration
Protocol: as §2, §3

[12] = test system: Dermatobacter hominis S11-2; test: as above; format: cell-based; conditions: S112; Dermatobacter hominis S11-2, isolated from acne lesions; read-out: Minimum Inhibitory Concentration
Protocol: as §2, §3

[13] = test system: Enterobacter aerogenes M2-1; test: as above; format: cell-based; conditions: Klebsiella aerogenes, M21; Enterobacter aerogenes M2-1, isolated from acne lesions; read-out: Minimum Inhibitory Concentration
Protocol: as §2, §3

K. pneumoniae S6-1 = test: as above; format: cell-based; conditions: Klebsiella pneumoniae, S61; K. pneumoniae S6-1, isolated from acne lesions; read-out: Minimum Inhibitory Concentration
Protocol: as §2, §3

Kocuria sp. S18-1 = test: as above; format: cell-based; conditions: SP.S181; Kocuria sp. S18-1, isolated from acne lesions; read-out: Minimum Inhibitory Concentration
Protocol: as §2, §3

Microbacterium sp. S20-2 = test: as above; format: cell-based; conditions: Microbacterium sp. S20-2, isolated from acne lesions
Protocol: as §2, §3

P. avidum S3-1 = test: as above; format: cell-based; conditions: Cutibacterium avidum, S31; P. avidum S3-1, isolated from acne lesions; read-out: Minimum Inhibitory Concentration
Protocol: as §2, §3

S. epidermidis S1-1 = test: as above; format: cell-based; conditions: Staphylococcus epidermidis, S11; S. epidermidis S1-1, isolated from acne lesions; read-out: Minimum Inhibitory Concentration
Protocol: as §2, §3

[14] = test system: Staphylococcus haemolyticus M1-1; test: as above; format: cell-based; conditions: M11; Staphylococcus haemolyticus M1-1, isolated from acne lesions; read-out: Minimum Inhibitory Concentration
Protocol: as §2, §3

Blastococcus sp. S21A-2 = format: cell-based; conditions: Blastococcus sp. S21A-2, isolated from acne lesions
Protocol: as §2, §3

[15] = test system: microorganisms that cause gram-negative folliculitis; test: MIC, summary statements on gram-negative bacteria involved in GNF; format: cell-based; conditions: for Activity against gram-negative bacterial strains involved in GNF (in words): irrespective of response to other conventional antibiotics or quinolones, ampicillin/cefotaxime susceptible and resistant strains
Protocol: as §2, §1

[16] = Skin penetration/retention on human abdominal skin, Franz-type diffusion cells; format: in vitro ADME; conditions: human epidermal membranes, 12 hr, approximately 10 mg/cm^2 of approximately 1.0% formulation
Protocol: Besifloxacin gel and cream containing suspended besifloxacin were tested for skin retention study on human abdominal skin. Besifloxacin gel and cream were applied over a 12 hr application period. Heat-separated epidermal membranes from a single donor were mounted in horizontal Franz-type diffusion cells (exposed surface area 1.33 cm2) over a receptor solution of phosphate buffered saline, pH 7.4 containing 5% ethanol to facilitate solubilisation of any material penetrating the skin. Cells were maintained at 35° C. and receptor solution was stirred throughout. Formulations containing approximately 1.0% besifloxacin w/w and applied at a dose of approximately 10 mg/cm^2. The samples of the receptor solution were taken at times up to 12 hrs and extracts from surface swabs, stratum corneum tape strips and residual epidermis were obtained at the end of the experiment at 12 hrs. All samples were analysed by validated LCMS.
Besifloxacin gel containing suspended besifloxacin was tested for skin retention study on human abdominal skin. Testing procedure was similar to example 27.

[17] = test system: skin resident bacteria isolated from acne lesions; test: MIC, summary statements on skin resident bacteria of acne patients; format: cell-based
Description: Moreover, as the MIC values are low and within a narrow range, the chance of future resistance generation due to sub optimal drug delivery in skin is also substantially lower.
Different skin resident bacteria were isolated from acne lesions of moderate to severe acne patients. As expected, P. acnes and S. epidermidis were two most prevalent species. Members of the skin microbiomes were of diverse nature. Most of the genus were gram positive, but few of them, like Klebsiella, were gram negative. Most of them were aerobic, but few, like P. acnes, were anaerobic in nature. […] Even if they are present in low numbers in microbiomes, they can act as reservoirs of resistance against antibiotic of choice which may in the log run affect the prognosis of GNF.

## CC1(C)S[C@@H]2[C@H](NC(=O)[C@H](N)c3ccccc3)C(=O)N2[C@H]1C(=O)O [Ampicillin]
Acinetobacter sp. 488
  MIC: > 128 µg/mL
Enterobacter sp. 1
  MIC: > 128 µg/mL
Enterobacter sp. 2
  MIC: 2 µg/mL (≈ 5.72 µM)
Enterobacter sp. 523
  MIC: > 128 µg/mL
Enterobacter sp. 532
  MIC: > 128 µg/mL
Escherichia coli 591
  MIC: 4 µg/mL (≈ 11.4 µM)
Escherichia coli 592
  MIC: > 128 µg/mL
Klebsiella sp. 498
  MIC: > 128 µg/mL
Klebsiella sp. 512
  MIC: 32 µg/mL (≈ 91.6 µM)
Pseudomonas sp. 537
  MIC: > 128 µg/mL
Pseudomonas sp. 556
  MIC: > 128 µg/mL

## N[C@@H]1CCCCN(c2c(F)cc3c(=O)c(C(=O)O)cn(C4CC4)c3c2Cl)C1 [Besifloxacin]
[1]
  MIC: 2 µg/mL (≈ 5.08 µM)
[2]
  MIC: 4 µg/mL (≈ 10.2 µM)
[3]
  MIC: 1 µg/mL (≈ 2.54 µM)
[4]
  MIC: 1 µg/mL (≈ 2.54 µM)
[5]
  MIC: 0.125 µg/mL (≈ 0.317 µM)
[6]
  MIC: 0.25 µg/mL (≈ 0.635 µM)
[7]
  MIC: 0.5 µg/mL (≈ 1.27 µM)
[8]
  MIC: 4 µg/mL (≈ 10.2 µM)
[9]
  MIC: 0.125 µg/mL (≈ 0.317 µM)
[10]
  MIC: 0.125 µg/mL (≈ 0.317 µM)
Acinetobacter sp. 488
  MIC: 2 µg/mL (≈ 5.08 µM)
Enterobacter sp. 1
  MIC: 16 µg/mL (≈ 40.6 µM)
Enterobacter sp. 2
  MIC: 1 µg/mL (≈ 2.54 µM)
Enterobacter sp. 523
  MIC: 0.5 µg/mL (≈ 1.27 µM)
Enterobacter sp. 532
  MIC: 16 µg/mL (≈ 40.6 µM)
Escherichia coli 591
  MIC: 0.125 µg/mL (≈ 0.317 µM)
Escherichia coli 592
  MIC: 0.5 µg/mL (≈ 1.27 µM)
Klebsiella sp. 498
  MIC: 16 µg/mL (≈ 40.6 µM)
Klebsiella sp. 512
  MIC: 0.25 µg/mL (≈ 0.635 µM)
Pseudomonas sp. 537
  MIC: 1 µg/mL (≈ 2.54 µM)
Pseudomonas sp. 556
  MIC: 1 µg/mL (≈ 2.54 µM)
P. acnes V3-1
  MIC: 0.5 µg/mL (≈ 1.27 µM)
[11]
  MIC: 0.02 µg/mL (≈ 0.0508 µM)
[12]
  MIC: 1 µg/mL (≈ 2.54 µM)
[13]
  MIC: 0.25 µg/mL (≈ 0.635 µM)
K. pneumoniae S6-1
  MIC: 1 µg/mL (≈ 2.54 µM)
Kocuria sp. S18-1
  MIC: 0.5 µg/mL (≈ 1.27 µM)
Microbacterium sp. S20-2
  Minimum Inhibitory Concentration: 0.5 µg/mL
P. avidum S3-1
  MIC: 0.5 µg/mL (≈ 1.27 µM)
S. epidermidis S1-1
  MIC: 0.25 µg/mL (≈ 0.635 µM)
[14]
  MIC: 0.13 µg/mL (≈ 0.33 µM)
Blastococcus sp. S21A-2
  Minimum Inhibitory Concentration: 0.06 µg/mL
[15]
  Activity against gram-negative bacterial strains involved in GNF (in words): very effective; also recorded: efficacious
[15]; listed as besifloxacin
  Activity against gram-negative bacterial strains involved in GNF (in words): susceptible
[15]; range over strains, read-out: MIC of besifloxacin against microorganisms that cause gram-negative folliculitis
  MIC: 0.125 to 16 µg/mL
[15]; vs cefotaxime, ampicillin, clindamycin, tetracycline and erythromycin
  MIC better (lower) compared with conventional antibiotics: at least 50%
[16]
  besifloxacin recovered from receptor solution: negligible amounts
[17]; Table 2 isolates
  Activity against skin resident bacteria isolated from acne lesions (in words): potent antibacterial activity
[17]; micro broth dilution assay, acne patients or healthy individuals
  isolates demonstrating resistance to besifloxacin: none
